≈ marks a conversion by molar mass, not a printed value. Where “and” joins values, the source holds several entries; their conditions need not be identical. Identical values can stand only once. Like-named read-outs stand apart in the source and are kept apart here.
Legend:
Format in all cases: physicochemical
[1] = Intrinsic aqueous solubility; details: water
Source text: Therefore, it was necessary to formulate the compound in such a way to get the desired solubility at a physiological pH and maintain stability prior to administration.

[2] = Solubility of compound in a co-solvent:water mixture; details: aqueous with cosolvent or surfactant or cyclodextrin, thermodynamic from solid, stirred over 16 hours
Method: Approximately 25 mg of drug substance was added to 2 mL aqueous solution of ethanol (33%, 50% and 75% v/v). An additional 10 mg of drug substance was added to the 75% sample as all drug appeared to dissolve. A similar study was performed by adding approximately 25 mg drug substance to 2 mL aqueous solution of tertiary butyl alcohol (33%, 50% and 66% v/v). Samples were stirred for over 16 hours, filtered through 0.45μ nylon syringe filters, diluted and analyzed by HPLC for drug concentration. The results shown in Table I indicate that among the conditions evaluated, 75% v/v dehydrated alcohol in water for injection provided the highest solubility. Based on the results of these studies, a formulation of 15 mg/mL drug substance in 75% v/v ethanol:water was selected for further studies.

[3] = Effect of pH on drug substance stability in ethanol:buffer solutions; details: for % Compound Remaining / Total Impurity Index: 1 mg/mL in 75% v/v ethanol:0.01M tartrate, 18 days 50° C.
Method: The effect of pH on the drug substance stability was also studied. The buffer pH providing maximum stability was determined by comparing the stability of prototype formulations of the drug substance. […] Relative area percents of drug peaks were evaluated following 2 days storage at 85° C. […] Subsequent experiments evaluated stability (1 mg drug/mL) in 75% v/v ethanol:0.01M tartrate buffers. Three mL aliquots of samples were dispensed into 5 cc Type I glass vials and closed with West 4405/50 20 mm stoppers. Percent drug substance remaining, and impurities were evaluated following 18 days storage at 50° C. and compared to initial values.

[4] = Solubility in aqueous dehydrated alcohol / POE castor oil solutions; details: aqueous dehydrated alcohol/POE castor oil solution, 24 °C, aqueous with cosolvent or surfactant or cyclodextrin, thermodynamic from solid, stirred 16 hours, read-out: Drug Solubility
Method: However, this solution cannot be injected directly into patients as the non-aqueous components exceed 20%, thus potentially causing irritation at the injection site. […] It has been shown that the precipitation can be avoided by inclusion of a co-solvent such as polyoxyethylated (POE) castor oil in the formulation. Subsequently, solubility of the drug substance was determined in solutions containing various amounts of dehydrated alcohol and POE castor oil. Approximately 20 mg of drug was added to 3 mL aliquots of the solutions shown below in Table III. Samples were stirred for 16 hours, filtered trough 0.45 micron nylon syringe filters and analyzed by HPLC for drug concentration.

[5] = Solubility in prototype formulation (75% v/v dehydrated alcohol, 10 mM tartrate buffer, apparent pH 5.4); details: aqueous with cosolvent or surfactant or cyclodextrin, thermodynamic from solid
Method: Solubility of four lots of drug substance was evaluated in the prototype formulation developed; 75% v/v dehydrated alcohol, 10 mM tartrate buffer resulting in an apparent pH of 5.4. 15 mg/mL of drug substance were used. 5 mL aliquots of the solution were dispensed into glass vials and an additional (˜50 mg) of drug substance was added. The vials were closed, sealed and stirred for 16 hours at room temperature. Samples were filtered and analyzed by HPLC for drug concentration.

[6] = Stability of solution in presence of POE castor oil at 50° C.; details: for Potency / Total Impurities: solution containing dehydrated alcohol and POE castor oil
Source text: As shown below, the stability of the solution containing POE castor oil was much lower than the injection solution without the co-solvent.

[7] = Equilibrium solubility in diluted drug product (mixed two-vial formulation); details: 7.5% ethanol, 4% POE castor oil in tartrate buffer; for solubility thermodynamic at 16 h: 24 °C
Method: A study was also undertaken to determine the equilibrium solubility of Compound Ia in the mixture obtained by mixing the contents of the two vial formulation. Ten milliliters of the mixed solution was transferred into four 10 cc Type I flint glass vials. To each of these aliquots, approximately 25 mg of drug substance was added. A different lot of drug substance was added to each vial. Vials were closed with West Teflon-faced stoppers, sealed with aluminum seals and stirred for 16 hours at room temperature, protected from light. Samples were filtered through 0.45 micron hydrophilic PVDF membranes and analyzed by HPLC for drug concentration. Solubility results are listed below in Table VI. […] Samples were prepared and stirred at 24±3° C. for about 5 hours and placed in a 5±3° C. storage chamber for about 17 hours. Upon removal from the storage chamber, samples were immediately filtered and analyzed by HPLC for drug concentration.

[8] = Dilution of drug solution with aqueous diluents; details: 15 mg/mL drug solution (75% ethanol/10 mM tartrate buffer, apparent pH 5.4) diluted with 0.9% sodium chloride injection or 5% dextrose injection
[9] = Buffer pH 2.6, apparent pH 3.88
[10] = Buffer pH 3.0, apparent pH 4.67
[11] = Buffer pH 3.5, apparent pH 5.15
[12] = Buffer pH 3.6, apparent pH 5.20
[13] = Buffer pH 3.8, apparent pH 5.39
[14] = Buffer pH 4.0, apparent pH 5.69
[15] = Buffer pH 4.0, apparent pH 5.81
[16] = Buffer pH 4.2, apparent pH 5.99
[17] = Buffer pH 4.4, apparent pH 6.24

CSCO[C@H]1C[C@H]2OC[C@@]2(OC(C)=O)[C@H]2[C@H](OC(=O)c3ccccc3)[C@]3(O)C[C@H](OC(=O)[C@H](O)[C@@H](NC(=O)c4ccccc4)c4ccccc4)C(C)=C([C@@H](OC(C)=O)C(=O)[C@]12C)C3(C)C [Compound Ia, 7-O-methylthiomethylpaclitaxel]
solubility [1]: < 0.0001 mg/mL | solubility ([2]; ethanol:water mixture, Dehydrated Alcohol, USP 33% v/v in water): 0.03 mg/mL (≈ 32.8 µM) | solubility ([2]; ethanol:water mixture, Dehydrated Alcohol, USP 50% v/v in water): 1.64 mg/mL (≈ 1790 µM) | solubility ([2]; ethanol:water mixture, Dehydrated Alcohol, USP 75% v/v in water): > 17.5 mg/mL | solubility ([2]; tertiary butyl alcohol:water mixture, Tertiary Butyl Alcohol 33% v/v in water): 0.19 mg/mL (≈ 208 µM) | solubility ([2]; tertiary butyl alcohol:water mixture, Tertiary Butyl Alcohol 50% v/v in water): 3.13 mg/mL (≈ 3420 µM) | solubility ([2]; tertiary butyl alcohol:water mixture, Tertiary Butyl Alcohol 66% v/v in water): 13 mg/mL (≈ 14200 µM) | buffer pH at which the best stability was achieved ([3]; 0.2 mg drug/mL in 16.7% v/v ethanol:0.1M citrate buffers, 2 days storage at 85° C., HPLC relative area percent): 4.5 | apparent pH of the most stable solution ([3]; 1 mg drug/mL in 75% v/v ethanol:0.01M tartrate buffers, 18 days at 50° C., corresponds to tartrate buffer pH 3.8): 5.4 | % Compound Remaining [3, 9]: 94.4% | Total Impurity Index [3, 9]: 4.16 Area % | % Compound Remaining [3, 10]: 97.1% | Total Impurity Index [3, 10]: 2.51 Area % | % Compound Remaining [3, 11]: 97.1% | Total Impurity Index [3, 11]: 2.06 Area % | % Compound Remaining [3, 12]: 98.1% | Total Impurity Index [3, 12]: 1.36 Area % | % Compound Remaining [3, 13]: 101% | Total Impurity Index [3, 13]: 1.34 Area % | % Compound Remaining [3, 14]: 100% | Total Impurity Index [3, 14]: 1.62 Area % | % Compound Remaining [3, 15]: 98.1% | Total Impurity Index [3, 15]: 1.99 Area % | % Compound Remaining [3, 16]: 99% | Total Impurity Index [3, 16]: 1.67 Area % | % Compound Remaining [3, 17]: 100% | Total Impurity Index [3, 17]: 1.84 Area % | solubility at 16 h ([4]; Aqueous vehicle: Dehydrated Alcohol 3.75% v/v, POE Castor Oil 2% v/v): 0.96 mg/mL (≈ 1050 µM) | solubility at 16 h ([4]; Aqueous vehicle: Dehydrated Alcohol 7.50% v/v, POE Castor Oil 4% v/v): > 1.5 mg/mL | solubility at 16 h ([4]; Aqueous vehicle: Dehydrated Alcohol 9.375% v/v, POE Castor Oil 5% v/v): 2.91 mg/mL (≈ 3180 µM) | solubility thermodynamic ([5]; 5 °C, 5±3° C., read-out: equilibrium solubility): 23 mg/mL (≈ 25200 µM) | solubility at 16 h ([5]; 25 °C, room temperature, average of four lots): ~22 mg/mL (≈ 24100 µM) | Potency ([6]; 6 days @ 50° C.): 2000 mg/L | Total Impurities ([6]; 6 days @ 50° C.): 10.9 | Potency ([6]; 16 days @ 50° C.): 1900 mg/L | Total Impurities ([6]; 16 days @ 50° C.): 16.5 | Potency ([6]; Initial): 2200 mg/L | Total Impurities ([6]; Initial): 2.1 | % potency remaining ([6]; injection solution (ethanol, pH 5.4 tartrate buffer) w/o POE castor oil, 28 days stored at 50° C.): 100% | % potency remaining ([6]; injection solution (ethanol, pH 5.4 tartrate buffer) with POE castor oil 4%, 16 days stored at 50° C.): 86% | solubility thermodynamic ([7]; 5 °C, aqueous with cosolvent or surfactant or cyclodextrin, thermodynamic from solid, 5 ± 3° C.): 2.46 mg/mL (≈ 2690 µM) | solubility thermodynamic at 16 h ([7]; aqueous with cosolvent or surfactant or cyclodextrin, thermodynamic from solid, 24 ± 3° C., individual lots of drug substance, read-out: Equilibrium Solubility in Diluted Drug Product): 2.58 mg/mL (≈ 2820 µM) | solubility thermodynamic at 16 h ([7]; aqueous with cosolvent or surfactant or cyclodextrin, thermodynamic from solid, Average @ 24 ± 3° C., four lots, read-out: Equilibrium Solubility in Diluted Drug Product, Average): ~2.58 mg/mL (≈ 2820 µM) | Equilibrium Solubility in Diluted Drug Product ([7]; 24 ± 3° C., individual lots of drug substance): 2.57 mg/mL and 2.62 mg/mL and 2.56 mg/mL | Equilibrium Solubility in Diluted Drug Product, Average ([7]; Average @ 24 ± 3° C., four lots): 2.58 mg/mL | outcome of dilution with aqueous diluents [8]: drug precipitation
